From patent publication US8865715B2, “Substituted 7-(1,2,3-Triazol-4-yl)-pyrrolo[2,3-b]pyrazines” (Merck Patent GmbH, priority 2010, dated 2014)

Key:
Assay type in all cases: biochemical
PDK1 = target: T1, PDK1 (Homo sapiens, UniProt O15530); assay: Test for the inhibition of PDK1 (384-well flashplate, 33P-ATP)
T1 construct: His6 (N)
T1 sequence (O15530 51-556 limits assumed): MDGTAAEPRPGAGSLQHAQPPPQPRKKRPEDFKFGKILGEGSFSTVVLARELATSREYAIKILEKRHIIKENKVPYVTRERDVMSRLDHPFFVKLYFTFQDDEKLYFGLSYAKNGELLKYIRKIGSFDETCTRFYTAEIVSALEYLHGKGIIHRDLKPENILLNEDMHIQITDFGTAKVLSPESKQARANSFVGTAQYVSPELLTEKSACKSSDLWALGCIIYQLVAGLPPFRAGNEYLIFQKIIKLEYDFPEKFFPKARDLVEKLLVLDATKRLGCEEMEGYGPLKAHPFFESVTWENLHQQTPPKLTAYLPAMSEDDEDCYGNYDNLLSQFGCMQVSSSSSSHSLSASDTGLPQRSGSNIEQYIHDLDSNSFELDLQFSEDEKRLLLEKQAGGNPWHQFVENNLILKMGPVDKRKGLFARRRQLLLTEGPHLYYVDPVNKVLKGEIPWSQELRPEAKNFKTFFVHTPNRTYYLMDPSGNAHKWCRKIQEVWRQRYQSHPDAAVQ
Description: 4.0 Test for the Inhibition of PDK1
The experimental batches are carried out in a flashplate system with 384 wells/microtitration plate.
In each case, the PDK1 sample His6-PDK1(1-50) (3.4 nM), the PDK1 substrate biotin-bA-bA-[…] (400 nM), 4 μM ATP (with 0.2 μCi of ^33P-ATP/well) and the test substance in 50 μl of conventional experimental solution per well are incubated at 30° C. for 60 min. The test substances are employed in corresponding concentrations (if desired in a dilution series). The control is carried out without test substance. The reaction is stopped using standard methods and washed. The activity of the kinase is measured via the incorporated radioactivity in top count. In order to determine the non-specific kinase reaction (blank value), the experimental batches are carried out in the presence of 100 nM staurosporine.
The radioactivity (decompositions per minute) of the blank value (no use of test substance in the presence of staurosporine) is subtracted from all other radioactivity values. The controls (kinase activity without test substance) are set equal to 100 percent and all other radioactivity values (after subtracting the blank value) are expressed set in relation thereto (for example in % of the control).
IC50 values (50% inhibition) are determined with the aid of statistics programmes, such as, for example, RS1.

IKKε = target: T2, IKKε (Homo sapiens, UniProt Q14164); assay: IKKε-kinase test (IKKepsilon), 384-well flashplate assay
T2 sequence (Q14164 1-716): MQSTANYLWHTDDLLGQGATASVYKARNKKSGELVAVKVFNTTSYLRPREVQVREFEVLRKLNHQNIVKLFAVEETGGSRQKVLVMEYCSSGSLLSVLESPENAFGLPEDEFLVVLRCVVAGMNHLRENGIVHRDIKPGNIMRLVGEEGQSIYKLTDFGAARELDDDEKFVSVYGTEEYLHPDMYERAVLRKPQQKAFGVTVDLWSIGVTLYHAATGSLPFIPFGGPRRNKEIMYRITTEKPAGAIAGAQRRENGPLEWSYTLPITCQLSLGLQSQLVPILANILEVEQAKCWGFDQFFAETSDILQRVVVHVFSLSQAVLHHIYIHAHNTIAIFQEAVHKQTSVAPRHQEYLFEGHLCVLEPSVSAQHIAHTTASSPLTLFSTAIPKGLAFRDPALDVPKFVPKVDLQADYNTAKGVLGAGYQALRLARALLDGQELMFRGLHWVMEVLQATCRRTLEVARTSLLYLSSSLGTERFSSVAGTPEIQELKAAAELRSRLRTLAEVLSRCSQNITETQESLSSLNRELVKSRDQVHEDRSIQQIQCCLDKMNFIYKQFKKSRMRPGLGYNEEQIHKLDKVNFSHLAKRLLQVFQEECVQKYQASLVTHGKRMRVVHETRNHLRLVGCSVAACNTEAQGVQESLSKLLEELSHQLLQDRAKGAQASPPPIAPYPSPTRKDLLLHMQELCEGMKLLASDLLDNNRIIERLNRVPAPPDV
Description: IKKε-Kinase Test (IKKepsilon)
The kinase assay is performed as 384-well flashplate assay. 1 nM IKKε, 800 nM biotinylated IκBα(19-42) peptide (biotin-C6-C6-[…]) and 10 μM ATP (with 0.3 μCi of ^33P-ATP/well) are incubated in a total volume of 50 μl (10 mM MOPS, 10 mM magnesium acetate, 0.1 mM EGTA, 1 mM dithiothreitol, 0.02% of Brij35, 0.1% of BSA, 0.1% of BioStab, pH 7.5) with or without test substance at 30° C. for 120 min. The reaction is stopped using […] of 200 mM EDTA solution, filtered off with suction after 30 min at room temperature, and the wells are washed 3 times with 100 μl of 0.9% NaCl solution. The non-specific proportion of the kinase reaction (blank) is determined using 3 μM EMD 1126352 (BX-795). Radioactivity is measured in the Topcount. IC50 values are calculated using RS1.

[1] = target: T3, TANK binding kinase (TBK1) (Homo sapiens, UniProt Q9UHD2); assay: TBK1-kinase test, 384-well flashplate assay
T3 sequence (Q9UHD2 1-729): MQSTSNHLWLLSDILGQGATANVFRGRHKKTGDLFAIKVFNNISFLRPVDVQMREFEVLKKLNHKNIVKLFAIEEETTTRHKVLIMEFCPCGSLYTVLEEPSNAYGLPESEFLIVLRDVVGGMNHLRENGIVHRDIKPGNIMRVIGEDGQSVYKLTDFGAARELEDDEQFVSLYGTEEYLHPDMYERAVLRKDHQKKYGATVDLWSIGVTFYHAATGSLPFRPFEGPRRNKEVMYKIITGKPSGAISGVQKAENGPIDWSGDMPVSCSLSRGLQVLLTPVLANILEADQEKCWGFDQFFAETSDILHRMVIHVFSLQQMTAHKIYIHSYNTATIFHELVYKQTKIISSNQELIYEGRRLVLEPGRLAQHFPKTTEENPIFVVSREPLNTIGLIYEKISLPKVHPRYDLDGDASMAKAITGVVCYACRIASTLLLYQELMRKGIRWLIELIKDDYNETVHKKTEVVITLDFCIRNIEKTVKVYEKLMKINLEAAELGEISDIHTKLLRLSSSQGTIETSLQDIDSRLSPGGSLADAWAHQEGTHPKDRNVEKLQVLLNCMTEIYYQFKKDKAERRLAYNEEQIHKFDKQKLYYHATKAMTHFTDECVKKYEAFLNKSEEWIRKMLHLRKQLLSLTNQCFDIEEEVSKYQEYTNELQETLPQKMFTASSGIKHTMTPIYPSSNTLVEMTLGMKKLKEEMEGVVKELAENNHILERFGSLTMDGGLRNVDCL
Description: The kinase assay is performed as 384-well flashplate assay. 0.6 nM TANK binding kinase (TBK1), 800 nM biotinylated MELK-derived peptide (biotin-Ah-Ah-[…]) and 10 μM ATP (with 0.25 μCi of ^33P-ATP/well) are incubated in a total volume of 50 μl (10 mM MOPS, 10 mM magnesium acetate, 0.1 mM EGTA, 1 mM DTT, 0.02% of Brij35, 0.1% of BSA, pH 7.5) with or without test substance at 30° C. for 120 min. The reaction is stopped using […] of 200 mM EDTA solution, filtered off with suction after 30 min at room temperature, and the wells are washed 3 times with 100 μl of 0.9% NaCl solution. The non-specific proportion of the kinase reaction (blank) is determined using 100 nM staurosporine. Radioactivity is measured in the Topcount. IC50 values are calculated using RS1.

| IC50 (PDK1) [nM] | IC50 (IKKε) [nM] | IC50 [1] [nM] | Compound |
| --- | --- | --- | --- |
| 0.5 to 1000 |  | 0.5 to 1000 | Cn1cc(-c2cnc3[nH]cc(-c4cn(Cc5ccccc5F)nn4)c3n2)cn1 [Compound A12] |
| 0.5 to 1000 | 0.5 to 1000 | 0.5 to 1000 | Cn1cc(-c2cnc3[nH]cc(-c4cn(Cc5cccc(F)c5F)nn4)c3n2)cn1 [Compound A7] |
| 0.5 to 1000 | 0.5 to 1000 | 0.5 to 1000 | Cn1cc(-c2cnc3[nH]cc(-c4cn(Cc5ccccc5Cl)nn4)c3n2)cn1 [Compound A5] |
| 0.5 to 1000 | 0.5 to 1000 | 0.5 to 1000 | Cn1cc(-c2cnc3[nH]cc(-c4cn(Cc5ccccc5C#N)nn4)c3n2)cn1 [Compound A4] |

More lines, now with the values behind:

| Compound | IC50 (PDK1) [nM] | IC50 (IKKε) [nM] | IC50 [1] [nM] |
| --- | --- | --- | --- |
| c1ccc(Cn2cc(-c3c[nH]c4nccnc34)nn2)cc1 [Compound A1, 7-(1-benzyl-1H-1,2,3-triazol-4-yl)-5H-pyrrolo[2,3-b]pyrazine] | 1000 to 10000 | 1000 to 10000 | 1000 to 10000 |
| Cn1cc(-c2cnc3[nH]cc(-c4cn(Cc5cccc(F)c5)nn4)c3n2)cn1 [Compound A3] | 0.5 to 1000 | 0.5 to 1000 | 0.5 to 1000 |
| Cn1cc(-c2cnc3[nH]cc(-c4cn(Cc5ccccc5)nn4)c3n2)cn1 [Compound A2, 7-(1-benzyl-1H-1,2,3-triazol-4-yl)-2-(1-methyl-1H-pyrazol-4-yl)-5H-pyrrolo[2,3-b]pyrazine] | 0.5 to 1000 | 0.5 to 1000 | 0.5 to 1000 |
| Cn1cc(-c2cnc3[nH]cc(-c4cn(Cc5ccc(F)cc5)nn4)c3n2)cn1 [Compound A10] | 0.5 to 1000 | 0.5 to 1000 | 0.5 to 1000 |
| Cn1cc(-c2cnc3[nH]cc(-c4cn(C(CCN5CCCC5)c5ccccc5)nn4)c3n2)cn1 (centres unmarked) [Compound A11, 7-[1-(3-Pyrrolidin-1-yl-1-phenylpropyl)-1H-1,2,3-triazol-4-yl]-2-(1-methyl-1H-pyrazol-4-yl)-5H-pyrrolo[2,3-b]pyrazine] | 0.5 to 1000 | 0.5 to 1000 | 0.5 to 1000 |
